Results: PubChem BioAssay AID1963873 (Molecular Pharmacology Branch, DTP, NCI, 2024)
Active and inactive are the calls of the source. How the source made its calls: active means viability on the fitted dose curve at most 10% of control; inactive means the rest.

System: 276233-004-R-J1-PDC KRAS spheroids with HUVEC/MSC, viability
Test: Anticancer human tumor 276233-004-R-J1-PDC patient-derived colon adenocarcinoma cell line growth inhibition [KRAS2]
Details: for IC50: curve of first compound; for viability, T/C: stronger effect = lower value
Outline: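 Combination screen of spheroid viability in tumor-cell co-cultures with endothelial (HUVEC) and mesenchymal stem cell stroma. Each agent was tested in half-log dilutions, topping at clinical Cmax or at 10 microM without a known Cmax.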

[1] = second compound 0.1 µM, first compound 0.000316 µM
[2] = second compound 0.1 µM, first compound 0.001 µM
[3] = second compound 0.1 µM, first compound 0.00316 µM
[4] = second compound 0.1 µM, first compound 0.01 µM
[5] = second compound 0.1 µM, first compound 0.0316 µM
[6] = second compound 0.1 µM, first compound 0.1 µM
[7] = second compound 0.316 µM, first compound 0.000316 µM
[8] = second compound 0.316 µM, first compound 0.001 µM
[9] = second compound 0.316 µM, first compound 0.00316 µM
[10] = second compound 0.316 µM, first compound 0.01 µM
[11] = second compound 0.316 µM, first compound 0.0316 µM
[12] = second compound 0.316 µM, first compound 0.1 µM
[13] = second compound 1 µM, first compound 0.000316 µM
[14] = second compound 1 µM, first compound 0.001 µM
[15] = second compound 1 µM, first compound 0.00316 µM
[16] = second compound 1 µM, first compound 0.01 µM
[17] = second compound 1 µM, first compound 0.0316 µM
[18] = second compound 1 µM, first compound 0.1 µM
[19] = second compound 3.16 µM, first compound 0.000316 µM
[20] = second compound 3.16 µM, first compound 0.001 µM
[21] = second compound 3.16 µM, first compound 0.00316 µM
[22] = second compound 3.16 µM, first compound 0.01 µM
[23] = second compound 3.16 µM, first compound 0.0316 µM
[24] = second compound 3.16 µM, first compound 0.1 µM
[25] = second compound 10 µM, first compound 0.000316 µM
[26] = second compound 10 µM, first compound 0.001 µM
[27] = second compound 10 µM, first compound 0.00316 µM
[28] = second compound 10 µM, first compound 0.01 µM
[29] = second compound 10 µM, first compound 0.0316 µM
[30] = second compound 10 µM, first compound 0.1 µM
[31] = second compound 0.1 µM, first compound 0.316 µM
[32] = second compound 0.1 µM, first compound 1 µM
[33] = second compound 0.1 µM, first compound 3.16 µM
[34] = second compound 0.1 µM, first compound 10 µM
[35] = second compound 0.316 µM, first compound 0.316 µM
[36] = second compound 0.316 µM, first compound 1 µM
[37] = second compound 0.316 µM, first compound 3.16 µM
[38] = second compound 0.316 µM, first compound 10 µM
[39] = second compound 1 µM, first compound 0.316 µM
[40] = second compound 1 µM, first compound 1 µM
[41] = second compound 1 µM, first compound 3.16 µM
[42] = second compound 1 µM, first compound 10 µM
[43] = second compound 3.16 µM, first compound 0.316 µM
[44] = second compound 3.16 µM, first compound 1 µM
[45] = second compound 3.16 µM, first compound 3.16 µM
[46] = second compound 3.16 µM, first compound 10 µM
[47] = second compound 10 µM, first compound 0.316 µM
[48] = second compound 10 µM, first compound 1 µM
[49] = second compound 10 µM, first compound 3.16 µM
[50] = second compound 10 µM, first compound 10 µM
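Wherever IC50 is given: cells exposed to agents for seven days before viability read.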
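Wherever viability, T/C is given: cells exposed to agents for seven days before viability read; 100% = DMSO vehicle control wells and lower values mean fewer viable cells.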

SMILES	IC50 (second compound 0.1 µM) [nM]	IC50 (second compound 0.316 µM) [nM]	IC50 (second compound 1 µM) [nM]	IC50 (second compound 3.16 µM) [nM]	IC50 (second compound 10 µM) [nM]	viability, T/C [1] [%]	viability, T/C [2] [%]	viability, T/C [3] [%]	viability, T/C [4] [%]	viability, T/C [5] [%]	viability, T/C [6] [%]	viability, T/C [7] [%]	viability, T/C [11] [%]	viability, T/C [12] [%]	viability, T/C [17] [%]	viability, T/C [18] [%]	viability, T/C [23] [%]	viability, T/C [24] [%]	viability, T/C [29] [%]	viability, T/C [30] [%]	further results
CN(C)C/C=C/C(=O)Nc1cc2c(Nc3ccc(F)c(Cl)c3)ncnc2cc1O[C@H]1CCOC1 + C=CC(=O)N1CCN(c2nc(=O)n(-c3c(C)ccnc3C(C)C)c3nc(-c4c(O)cccc4F)c(F)cc23)C(C)C1	> 100	> 100	> 100	> 100	> 100	93.5	97.1	72	87.6	75.8	85.3	109	88	87	84.6	95.6	78.6	69.7	69.1	84.9	viability, T/C [8]: 80.8%; viability, T/C [9]: 83%; viability, T/C [10]: 67.6%; viability, T/C [13]: 103%; viability, T/C [14]: 101%; viability, T/C [15]: 80.8%; viability, T/C [16]: 82.6%; viability, T/C [19]: 87.1%; viability, T/C [20]: 77.8%; viability, T/C [21]: 85.9%; viability, T/C [22]: 69.9%; viability, T/C [25]: 66%; viability, T/C [26]: 65.8%; viability, T/C [27]: 57.8%; viability, T/C [28]: 66.8%
O=C(c1cc(Cc2n[nH]c(=O)c3ccccc23)ccc1F)N1CCN(C(=O)C2CC2)CC1 + CC1OCC2(CCN(c3cnc(Sc4ccnc(N)c4Cl)c(N)n3)CC2)C1N	> 10000	> 10000	> 10000	233	70.7	–	–	–	–	75.3	84.9	–	76.6	78.5	95.6	67.9	54.4	52.8	55.9	47.1	viability, T/C [31]: 85.4%; viability, T/C [32]: 81.8%; viability, T/C [33]: 79.4%; viability, T/C [34]: 62.5%; viability, T/C [35]: 65.7%; viability, T/C [36]: 71.7%; viability, T/C [37]: 64.9%; viability, T/C [38]: 65%; viability, T/C [39]: 59.4%; viability, T/C [40]: 54.2%; viability, T/C [41]: 51%; viability, T/C [42]: 52.9%; viability, T/C [43]: 45.1%; viability, T/C [44]: 50.6%; viability, T/C [45]: 44.4%; viability, T/C [46]: 43.3%; viability, T/C [47]: 41.4%; viability, T/C [48]: 42.7%; viability, T/C [49]: 37.5%; viability, T/C [50]: 36.6%
Cn1ncnc1[C@H]1c2n[nH]c(=O)c3cc(F)cc(c23)N[C@@H]1c1ccc(F)cc1 + C=CC(=O)N1CCN(c2nc(=O)n(-c3c(C)ccnc3C(C)C)c3nc(-c4c(O)cccc4F)c(F)cc23)C(C)C1	> 100	> 100	> 100	> 100	> 100	89.7	98	94.8	99.5	95.1	91.7	99.6	94.4	92	95.5	94.9	97.8	133	83.4	88.4	viability, T/C [8]: 111%; viability, T/C [9]: 101%; viability, T/C [10]: 100%; viability, T/C [13]: 98.6%; viability, T/C [14]: 121%; viability, T/C [15]: 138%; viability, T/C [16]: 93.9%; viability, T/C [19]: 98.4%; viability, T/C [20]: 116%; viability, T/C [21]: 117%; viability, T/C [22]: 92.5%; viability, T/C [25]: 88.2%; viability, T/C [26]: 91.3%; viability, T/C [27]: 114%; viability, T/C [28]: 85.7%
CC1(C)CCC(CN2CCN(c3ccc(C(=O)NS(=O)(=O)c4ccc(NCC5CCOCC5)c([N+](=O)[O-])c4)c(Oc4cnc5[nH]ccc5c4)c3)CC2)=C(c2ccc(Cl)cc2)C1 + CC1OCC2(CCN(c3cnc(Sc4ccnc(N)c4Cl)c(N)n3)CC2)C1N	> 10000	5970	3180	2570	3200	–	–	–	–	78.6	91.9	–	89.7	77.9	67.3	75	69.1	62.6	60.1	72	viability, T/C [31]: 72.4%; viability, T/C [32]: 116%; viability, T/C [33]: 74.8%; viability, T/C [34]: 54.9%; viability, T/C [35]: 89.2%; viability, T/C [36]: 81%; viability, T/C [37]: 63.7%; viability, T/C [38]: 39%; viability, T/C [39]: 85.7%; viability, T/C [40]: 62.3%; viability, T/C [41]: 51.6%; viability, T/C [42]: 27.2%; viability, T/C [43]: 77.5%; viability, T/C [44]: 81.1%; viability, T/C [45]: 45%; viability, T/C [46]: 24.8%; viability, T/C [47]: 65.8%; viability, T/C [48]: 72.7%; viability, T/C [49]: 50.4%; viability, T/C [50]: 14.4%
CC(C)NCC(C(=O)N1CCN(c2ncnc3c2C(C)CC3O)CC1)c1ccc(Cl)cc1 (stereo not given) + COc1cc2nc(C)nc(NC(C)c3cc(N)cc(C(F)(F)F)c3)c2cc1OC1CCOC1	1780	1110	1240	700	< 31.6	–	–	–	–	75.5	79.9	–	89.3	78.6	67.4	76.3	80.7	75.6	35.6	16.1	viability, T/C [31]: 73.6%; viability, T/C [32]: 56.6%; viability, T/C [33]: 35.8%; viability, T/C [34]: 51.2%; viability, T/C [35]: 62.7%; viability, T/C [36]: 57.8%; viability, T/C [37]: 32.6%; viability, T/C [38]: 38.8%; viability, T/C [39]: 70.3%; viability, T/C [40]: 55.4%; viability, T/C [41]: 26.2%; viability, T/C [42]: 27.4%; viability, T/C [43]: 78.2%; viability, T/C [44]: 37.3%; viability, T/C [45]: 29.9%; viability, T/C [46]: 38.8%; viability, T/C [47]: 13.9%; viability, T/C [48]: 7.24%; viability, T/C [49]: 4.57%; viability, T/C [50]: 6.8%
CN(C)C/C=C/C(=O)Nc1cc2c(Nc3ccc(F)c(Cl)c3)ncnc2cc1O[C@H]1CCOC1 + CC1OCC2(CCN(c3cnc(Sc4ccnc(N)c4Cl)c(N)n3)CC2)C1N	> 100	> 100	> 100	83.3	> 100	95.9	96.1	92.4	71.3	80.1	81.6	80.7	75.5	78.1	104	79.5	54.5	48.8	50.9	55.4	viability, T/C [8]: 76.6%; viability, T/C [9]: 94.3%; viability, T/C [10]: 81.1%; viability, T/C [13]: 93.2%; viability, T/C [14]: 95.5%; viability, T/C [15]: 104%; viability, T/C [16]: 97.9%; viability, T/C [19]: 56.4%; viability, T/C [20]: 53%; viability, T/C [21]: 48.7%; viability, T/C [22]: 51.1%; outcome [25]: inactive; outcome [26]: inactive; viability, T/C [27]: 52.6%; outcome [28]: inactive
